Laboratory results from PubChem BioAssay (NCI).
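All cell lines were grown in 96-well plates and treated with compound for 48 hours. GI50 marks 50% less growth. TGI marks complete inhibition of growth.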

Assays:
Assay in all cases: growth of human tumour cells (NCI), 48 h
786-0 renal = system: 786-0 renal
HL-60(TB) leukemia = system: HL-60(TB) leukemia
HOP-92 NSCLC = system: HOP-92 NSCLC
K-562 leukemia = system: K-562 leukemia
SK-MEL-5 melanoma = system: SK-MEL-5 melanoma
SNB-19 CNS = system: SNB-19 CNS
UACC-257 melanoma = system: UACC-257 melanoma
UACC-62 melanoma = system: UACC-62 melanoma

COc1cc(-c2nn(-c3ccc(NC(=O)Nc4cc(C(F)(F)F)cc(C(F)(F)F)c4)cc3)cc2-c2ccncc2)ccc1Cl
GI50 (786-0 renal): 2480 nM
TGI (786-0 renal): 6.39 µM
GI50 (HL-60(TB) leukemia): 3040 nM
TGI (HL-60(TB) leukemia): > 100 µM
GI50 (HOP-92 NSCLC): 1070 nM
TGI (HOP-92 NSCLC): 4.32 µM
GI50 (K-562 leukemia): 2480 nM
TGI (K-562 leukemia): > 100 µM
GI50 (SK-MEL-5 melanoma): 1530 nM
TGI (SK-MEL-5 melanoma): 2.98 µM
GI50 (SNB-19 CNS): 1800 nM
TGI (SNB-19 CNS): 3.88 µM
GI50 (UACC-257 melanoma): 2300 nM
TGI (UACC-257 melanoma): 7.73 µM
GI50 (UACC-62 melanoma): 1550 nM
TGI (UACC-62 melanoma): 3.4 µM

Oc1ccc2c(=S)cc(-c3ccc(Br)cc3)oc2c1O
GI50 (786-0 renal): 2890 nM
TGI (786-0 renal): 11.1 µM
GI50 (HL-60(TB) leukemia): 1660 nM
TGI (HL-60(TB) leukemia): 6.24 µM
GI50 (HOP-92 NSCLC): 1690 nM
TGI (HOP-92 NSCLC): 6.11 µM
GI50 (K-562 leukemia): 2470 nM
TGI (K-562 leukemia): > 100 µM
GI50 (SK-MEL-5 melanoma): 1790 nM
TGI (SK-MEL-5 melanoma): 3.95 µM
GI50 (SNB-19 CNS): 2950 nM
TGI (SNB-19 CNS): > 100 µM
GI50 (UACC-257 melanoma): 2880 nM
TGI (UACC-257 melanoma): 8.25 µM
GI50 (UACC-62 melanoma): 2090 nM
TGI (UACC-62 melanoma): 4.85 µM

CC(C)(C)[Si](C)(C)OCC1OC(n2cnc3c(=O)[nH]cnc32)CC1O (stereo not given)
TGI (786-0 renal): > 100 µM
TGI (HL-60(TB) leukemia): > 100 µM
TGI (HOP-92 NSCLC): > 100 µM
TGI (K-562 leukemia): > 100 µM
TGI (SK-MEL-5 melanoma): > 100 µM
TGI (SNB-19 CNS): > 100 µM
TGI (UACC-257 melanoma): > 100 µM
TGI (UACC-62 melanoma): > 100 µM

CN1CCC2(CC1)N=C(SCC(=O)Nc1cnc3ccccc3c1)C(c1ccc(Br)cc1)=N2
GI50 (786-0 renal): 1500 nM
TGI (786-0 renal): 2.85 µM
GI50 (HL-60(TB) leukemia): 1610 nM
TGI (HL-60(TB) leukemia): 3.75 µM
GI50 (HOP-92 NSCLC): 1220 nM
TGI (HOP-92 NSCLC): 3.35 µM
GI50 (K-562 leukemia): 1890 nM
TGI (K-562 leukemia): 5.05 µM
GI50 (SK-MEL-5 melanoma): 1680 nM
TGI (SK-MEL-5 melanoma): 3.07 µM
GI50 (SNB-19 CNS): 2580 nM
TGI (SNB-19 CNS): 7.83 µM
GI50 (UACC-257 melanoma): 1790 nM
TGI (UACC-257 melanoma): 3.31 µM
GI50 (UACC-62 melanoma): 1710 nM
TGI (UACC-62 melanoma): 3.21 µM

O=C(O)CCC(c1ccccc1)(c1ccccc1)c1ccccc1
TGI (786-0 renal): > 100 µM
TGI (HL-60(TB) leukemia): > 90.6 µM
TGI (HOP-92 NSCLC): > 73.9 µM
TGI (K-562 leukemia): > 100 µM
TGI (SK-MEL-5 melanoma): > 100 µM
TGI (SNB-19 CNS): > 100 µM
TGI (UACC-257 melanoma): > 100 µM
TGI (UACC-62 melanoma): > 100 µM

Cn1c(CCCC(=O)O)nc2cc(N(CCCl)CCCl)ccc21
GI50 (786-0 renal): > 80900 nM
TGI (786-0 renal): > 100 µM
GI50 (HL-60(TB) leukemia): > 51200 nM
TGI (HL-60(TB) leukemia): > 85.3 µM
GI50 (HOP-92 NSCLC): 33500 nM
TGI (HOP-92 NSCLC): > 93.3 µM
GI50 (K-562 leukemia): > 100000 nM
TGI (K-562 leukemia): > 100 µM
GI50 (SK-MEL-5 melanoma): > 71600 nM
TGI (SK-MEL-5 melanoma): > 100 µM
GI50 (SNB-19 CNS): 97900 nM
TGI (SNB-19 CNS): > 100 µM
GI50 (UACC-257 melanoma): > 94700 nM
TGI (UACC-257 melanoma): > 100 µM
GI50 (UACC-62 melanoma): 52500 nM
TGI (UACC-62 melanoma): > 100 µM

COc1ccc(OC)c(Nc2nc3nonc3nc2Nc2cccc(Br)c2)c1
GI50 (786-0 renal): 1710 nM
TGI (786-0 renal): 13.8 µM
GI50 (HL-60(TB) leukemia): 702 nM
TGI (HL-60(TB) leukemia): 5.9 µM
GI50 (HOP-92 NSCLC): 266 nM
TGI (HOP-92 NSCLC): 3.55 µM
GI50 (K-562 leukemia): 556 nM
TGI (K-562 leukemia): 17.5 µM
GI50 (SK-MEL-5 melanoma): 297 nM
TGI (SK-MEL-5 melanoma): 1.57 µM
GI50 (SNB-19 CNS): 692 nM
TGI (SNB-19 CNS): 19.1 µM
GI50 (UACC-257 melanoma): 508 nM
TGI (UACC-257 melanoma): 7.37 µM
GI50 (UACC-62 melanoma): 301 nM
TGI (UACC-62 melanoma): 14.1 µM

COc1ccc(Cn2cc(COc3cc(/C=C/C(=O)c4cc(OC)c(OC)c(OC)c4)ccc3OC)nn2)cc1
GI50 (786-0 renal): 5010 nM
TGI (786-0 renal): > 100 µM
GI50 (HL-60(TB) leukemia): 4550 nM
TGI (HL-60(TB) leukemia): 35.1 µM
GI50 (K-562 leukemia): 3130 nM
TGI (K-562 leukemia): > 100 µM
GI50 (SK-MEL-5 melanoma): 3660 nM
TGI (SK-MEL-5 melanoma): 20.5 µM
GI50 (SNB-19 CNS): 5990 nM
TGI (SNB-19 CNS): > 100 µM
GI50 (UACC-257 melanoma): 10300 nM
TGI (UACC-257 melanoma): > 100 µM
GI50 (UACC-62 melanoma): 4190 nM
TGI (UACC-62 melanoma): > 100 µM

NS(=O)(=O)c1ccc(N=Nc2ccc[nH]c2=O)cc1
TGI (786-0 renal): > 100 µM
TGI (HL-60(TB) leukemia): > 100 µM
TGI (HOP-92 NSCLC): > 100 µM
TGI (K-562 leukemia): > 100 µM
TGI (SK-MEL-5 melanoma): > 100 µM
TGI (SNB-19 CNS): > 100 µM
TGI (UACC-257 melanoma): > 100 µM
TGI (UACC-62 melanoma): > 100 µM

CC1(C)C(N2CCOCC2)CS1(=O)=O (stereo not given)
TGI (786-0 renal): > 10 µM
TGI (HL-60(TB) leukemia): > 10 µM
TGI (HOP-92 NSCLC): > 10 µM
TGI (K-562 leukemia): > 10 µM
TGI (SK-MEL-5 melanoma): > 10 µM
TGI (SNB-19 CNS): > 10 µM
TGI (UACC-257 melanoma): > 10 µM
TGI (UACC-62 melanoma): > 10 µM

O=C(/C=C/c1ccccc1)c1cccc2ccccc12
GI50 (786-0 renal): 2820 nM
TGI (786-0 renal): 7.25 µM
GI50 (HL-60(TB) leukemia): 1490 nM
TGI (HL-60(TB) leukemia): 5.21 µM
GI50 (HOP-92 NSCLC): 2050 nM
TGI (HOP-92 NSCLC): 6.8 µM
GI50 (K-562 leukemia): 1610 nM
TGI (K-562 leukemia): 5.26 µM
GI50 (SK-MEL-5 melanoma): 2980 nM
TGI (SK-MEL-5 melanoma): 11.7 µM
GI50 (SNB-19 CNS): 4100 nM
TGI (SNB-19 CNS): 15.3 µM
GI50 (UACC-257 melanoma): 4130 nM
TGI (UACC-257 melanoma): 15.5 µM
GI50 (UACC-62 melanoma): 3460 nM
TGI (UACC-62 melanoma): 11.8 µM

O=C1/C(=C\c2ccc(F)cc2)CN(C(=O)c2ccccc2F)C/C1=C\c1ccc(F)cc1
GI50 (786-0 renal): 1610 nM
TGI (786-0 renal): 3.17 µM
GI50 (HL-60(TB) leukemia): 1110 nM
TGI (HL-60(TB) leukemia): 4.57 µM
GI50 (HOP-92 NSCLC): 1860 nM
TGI (HOP-92 NSCLC): 5.63 µM
GI50 (K-562 leukemia): 414 nM
GI50 (SK-MEL-5 melanoma): 1450 nM
TGI (SK-MEL-5 melanoma): 2.83 µM
GI50 (SNB-19 CNS): 1580 nM
TGI (SNB-19 CNS): 3.55 µM
GI50 (UACC-257 melanoma): 1710 nM
TGI (UACC-257 melanoma): 3.47 µM
GI50 (UACC-62 melanoma): 1460 nM
TGI (UACC-62 melanoma): 3.05 µM

CCN(CC)CCNC(=O)c1cccc2c1-c1ccccc1C2=O
GI50 (786-0 renal): > 100000 nM
TGI (786-0 renal): > 100 µM
GI50 (HOP-92 NSCLC): > 100000 nM
TGI (HOP-92 NSCLC): > 100 µM
GI50 (K-562 leukemia): > 100000 nM
TGI (K-562 leukemia): > 100 µM
GI50 (SK-MEL-5 melanoma): > 100000 nM
TGI (SK-MEL-5 melanoma): > 100 µM
GI50 (SNB-19 CNS): > 100000 nM
TGI (SNB-19 CNS): > 100 µM
GI50 (UACC-257 melanoma): > 100000 nM
TGI (UACC-257 melanoma): > 100 µM
GI50 (UACC-62 melanoma): > 100000 nM
TGI (UACC-62 melanoma): > 100 µM

COc1cccc2c1C(=O)c1c(O)c3c(c(O)c1C2=O)C[C@@](O)(/C(CO)=N/NC(=O)CCCCCN1C(=O)C=CC1=O)C[C@@H]3O[C@H]1C[C@H](N)[C@H](O)[C@H](C)O1
GI50 (786-0 renal): 386 nM
TGI (786-0 renal): 9.21 µM
GI50 (HL-60(TB) leukemia): 800 nM
TGI (HL-60(TB) leukemia): 15.5 µM
GI50 (HOP-92 NSCLC): 270 nM
TGI (HOP-92 NSCLC): 7.01 µM
GI50 (K-562 leukemia): 825 nM
TGI (K-562 leukemia): > 52.5 µM
GI50 (SNB-19 CNS): 465 nM
TGI (SNB-19 CNS): 11.4 µM
GI50 (UACC-257 melanoma): 1060 nM
TGI (UACC-257 melanoma): 4.32 µM
GI50 (UACC-62 melanoma): 621 nM
TGI (UACC-62 melanoma): 3 µM

COC(=O)C1C(C(=O)O)C2(c3ccccc3)C(=O)C1(c1ccccc1)C(c1ccccc1)=C2c1ccccc1 (stereo not given)
GI50 (786-0 renal): 21200 nM
TGI (786-0 renal): 37.5 µM
GI50 (HOP-92 NSCLC): 10600 nM
TGI (HOP-92 NSCLC): 30.9 µM
GI50 (K-562 leukemia): 21800 nM
TGI (K-562 leukemia): > 100 µM
GI50 (SK-MEL-5 melanoma): 12900 nM
TGI (SK-MEL-5 melanoma): 27.6 µM
GI50 (SNB-19 CNS): 11700 nM
TGI (SNB-19 CNS): 29.5 µM
GI50 (UACC-257 melanoma): 19600 nM
TGI (UACC-257 melanoma): 40.9 µM
GI50 (UACC-62 melanoma): 15500 nM
TGI (UACC-62 melanoma): 29.9 µM

Nc1[nH]nc2nc(-c3cc(Cl)ccc3Cl)cc(-c3ccc(F)cc3)c12
GI50 (786-0 renal): 23700 nM
TGI (786-0 renal): 59.2 µM
GI50 (HOP-92 NSCLC): 14500 nM
TGI (HOP-92 NSCLC): 30 µM
GI50 (K-562 leukemia): 43900 nM
TGI (K-562 leukemia): > 100 µM
GI50 (SK-MEL-5 melanoma): 16600 nM
TGI (SK-MEL-5 melanoma): 34.1 µM
GI50 (SNB-19 CNS): 35700 nM
TGI (SNB-19 CNS): > 100 µM
GI50 (UACC-257 melanoma): 25200 nM
TGI (UACC-257 melanoma): 68.3 µM
GI50 (UACC-62 melanoma): 16000 nM
TGI (UACC-62 melanoma): 32.4 µM

N#C/C(=C\c1c(O)cc(O)cc1O)C(N)=O
TGI (786-0 renal): > 100 µM
TGI (HL-60(TB) leukemia): > 100 µM
TGI (HOP-92 NSCLC): > 100 µM
TGI (K-562 leukemia): > 100 µM
TGI (SK-MEL-5 melanoma): > 100 µM
TGI (SNB-19 CNS): > 100 µM
TGI (UACC-257 melanoma): > 100 µM
